# Assay results from PubChem BioAssay AID1918994 (Molecular Pharmacology Branch, DTP, NCI, 2023).
# pIC50: −log10 of the molar value. Where “and” joins values, the source holds several entries; their conditions need not be identical. Identical values can stand only once.
# Test system: 292921-168-R-J2-PDC complex spheroid growth
# Experiment: Anticancer human tumor 292921-168-R-J2-PDC patient-derived pancreatic carcinoma cell line growth inhibition [AhR]
# Settings: for viability, T/C: stronger effect = lower value
# Outline: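 Complex tumor spheroids co-cultured with HUVEC and human MSC stroma; AhR antagonists tested in combination with standard-of-care and investigational agents. Top concentration at or near clinical Cmax (else 10 microM), half-log dilutions; growth expressed as percent test/control.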
# [1] = curve of first compound, second compound 0.1 µM
# [2] = curve of first compound, second compound 0.316 µM
# [3] = curve of first compound, second compound 1 µM
# [4] = curve of first compound, second compound 3.16 µM
# [5] = curve of first compound, second compound 10 µM
# [6] = second compound 0.1 µM, first compound 0.00949 µM
# [7] = second compound 0.1 µM, first compound 0.03 µM
# [8] = second compound 0.1 µM, first compound 0.0949 µM
# [9] = second compound 0.1 µM, first compound 0.3 µM
# [10] = second compound 0.316 µM, first compound 0.00949 µM
# [11] = second compound 0.316 µM, first compound 0.03 µM
# [12] = second compound 0.316 µM, first compound 0.0949 µM
# [13] = second compound 0.316 µM, first compound 0.3 µM
# [14] = second compound 1 µM, first compound 0.00949 µM
# [15] = second compound 1 µM, first compound 0.03 µM
# [16] = second compound 1 µM, first compound 0.0949 µM
# [17] = second compound 1 µM, first compound 0.3 µM
# [18] = second compound 3.16 µM, first compound 0.00949 µM
# [19] = second compound 3.16 µM, first compound 0.03 µM
# [20] = second compound 3.16 µM, first compound 0.0949 µM
# [21] = second compound 3.16 µM, first compound 0.3 µM
# [22] = second compound 10 µM, first compound 0.00949 µM
# [23] = second compound 10 µM, first compound 0.03 µM
# [24] = second compound 10 µM, first compound 0.0949 µM
# [25] = second compound 10 µM, first compound 0.3 µM
# [26] = second compound 0.1 µM, first compound 0.0316 µM
# [27] = second compound 0.1 µM, first compound 0.1 µM
# [28] = second compound 0.1 µM, first compound 0.316 µM
# [29] = second compound 0.1 µM, first compound 1 µM
# [30] = second compound 0.1 µM, first compound 3.16 µM
# [31] = second compound 0.1 µM, first compound 10 µM
# [32] = second compound 0.316 µM, first compound 0.0316 µM
# [33] = second compound 0.316 µM, first compound 0.1 µM
# [34] = second compound 0.316 µM, first compound 0.316 µM
# [35] = second compound 0.316 µM, first compound 1 µM
# [36] = second compound 0.316 µM, first compound 3.16 µM
# [37] = second compound 0.316 µM, first compound 10 µM
# [38] = second compound 1 µM, first compound 0.0316 µM
# [39] = second compound 1 µM, first compound 0.1 µM
# [40] = second compound 1 µM, first compound 0.316 µM
# [41] = second compound 1 µM, first compound 1 µM
# [42] = second compound 1 µM, first compound 3.16 µM
# [43] = second compound 1 µM, first compound 10 µM
# [44] = second compound 3.16 µM, first compound 0.0316 µM
# [45] = second compound 3.16 µM, first compound 0.1 µM
# [46] = second compound 3.16 µM, first compound 0.316 µM
# [47] = second compound 3.16 µM, first compound 1 µM
# [48] = second compound 3.16 µM, first compound 3.16 µM
# [49] = second compound 3.16 µM, first compound 10 µM
# [50] = second compound 10 µM, first compound 0.0316 µM
# [51] = second compound 10 µM, first compound 0.1 µM
# [52] = second compound 10 µM, first compound 0.316 µM
# [53] = second compound 10 µM, first compound 1 µM
# [54] = second compound 10 µM, first compound 3.16 µM
# [55] = second compound 10 µM, first compound 10 µM
# 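Also: spheroids exposed to compounds for seven days after three days of growth.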
structure (smiles),measurement,setting,value
CCN(c1cc(-c2ccc(CN3CCOCC3)cc2)cc(C(=O)NCc2c(C)cc(C)[nH]c2=O)c1C)C1CCOCC1 + Cc1ccccc1N=Nc1ccc(NC(=O)c2ccnn2C)c(C)c1,pIC50,[1],< 5.52
same,pIC50,[2],< 5.52
same,pIC50,[3],< 5.52
same,pIC50,[4],< 5.52
same,pIC50,[5],5.84
same,"viability, T/C",[6],98.1%
same,"viability, T/C",[7],90.7%
same,"viability, T/C",[8],96.7%
same,"viability, T/C",[9],89.5%
same,"viability, T/C","second compound 0.1 µM, first compound 0.949 µM",86%
same,"viability, T/C","second compound 0.1 µM, first compound 3 µM",80.5%
same,"viability, T/C",[10],93.4%
same,"viability, T/C",[11],85.2%
same,"viability, T/C",[12],81.7%
same,"viability, T/C",[13],80.7%
same,"viability, T/C","second compound 0.316 µM, first compound 0.949 µM",71.9%
same,"viability, T/C","second compound 0.316 µM, first compound 3 µM",76.8%
same,"viability, T/C",[14],82.1%
same,"viability, T/C",[15],87.8%
same,"viability, T/C",[16],88.8%
same,"viability, T/C",[17],79.1%
same,"viability, T/C","second compound 1 µM, first compound 0.949 µM",85.7%
same,"viability, T/C","second compound 1 µM, first compound 3 µM",69.5%
same,"viability, T/C",[18],72.2%
same,"viability, T/C",[19],74.9%
same,"viability, T/C",[20],72.5%
same,"viability, T/C",[21],68.2%
same,"viability, T/C","second compound 3.16 µM, first compound 0.949 µM",67.3%
same,"viability, T/C","second compound 3.16 µM, first compound 3 µM",58.8%
same,"viability, T/C",[22],57%
same,"viability, T/C",[23],58.2%
same,"viability, T/C",[24],51%
same,"viability, T/C",[25],57.4%
same,"viability, T/C","second compound 10 µM, first compound 0.949 µM",53%
same,"viability, T/C","second compound 10 µM, first compound 3 µM",44.8%
COc1ccc([C@@H](O)c2cc(-c3ncnc4cc(N5CCOCC5)ccc34)c(F)cc2Cl)nn1 + Cc1ccccc1N=Nc1ccc(NC(=O)c2ccnn2C)c(C)c1,pIC50,[1],5.71
same,pIC50,[2],5.71
same,pIC50,[3],5.78
same,pIC50,[4],5.88
same,pIC50,[5],6.28
same,"viability, T/C",[26],89.1%
same,"viability, T/C",[27],81.5%
same,"viability, T/C",[28],81%
same,"viability, T/C",[29],56.2%
same,"viability, T/C",[30],44.9%
same,"viability, T/C",[31],27%
same,"viability, T/C",[32],90%
same,"viability, T/C",[33],80.9%
same,"viability, T/C",[34],79.2%
same,"viability, T/C",[35],59.7%
same,"viability, T/C",[36],42.1%
same,"viability, T/C",[37],24%
same,"viability, T/C",[38],76.5%
same,"viability, T/C",[39],81.6%
same,"viability, T/C",[40],71.6%
same,"viability, T/C",[41],55.8%
same,"viability, T/C",[42],41%
same,"viability, T/C",[43],22.4%
same,"viability, T/C",[44],70.7%
same,"viability, T/C",[45],68%
same,"viability, T/C",[46],66.6%
same,"viability, T/C",[47],52%
same,"viability, T/C",[48],38.5%
same,"viability, T/C",[49],21%
same,"viability, T/C",[50],57.4%
same,"viability, T/C",[51],54.6%
same,"viability, T/C",[52],53.7%
same,"viability, T/C",[53],46.8%
same,"viability, T/C",[54],34.9%
same,"viability, T/C",[55],20.4%
COc1ccc([C@@H](O)c2cc(-c3ncnc4cc(N5CCOCC5)ccc34)c(F)cc2Cl)nn1 + Cc1cncc(-c2nc(NCCc3c[nH]c4ccccc34)c3ncn(C(C)C)c3n2)c1,pIC50,[1],5.69
same,pIC50,[2],5.79
same,pIC50,[3],5.86
same,pIC50,[4],6.22
same,pIC50,[5],> 7.50
same,"viability, T/C",[26],81.6%
same,"viability, T/C",[27],85.2%
same,"viability, T/C",[28],68.8%
same,"viability, T/C",[29],67.2%
same,"viability, T/C",[30],39.9%
same,"viability, T/C",[31],25.8%
same,"viability, T/C",[32],80.6%
same,"viability, T/C",[33],78.2%
same,"viability, T/C",[34],81%
same,"viability, T/C",[35],59.7%
same,"viability, T/C",[36],36.3%
same,"viability, T/C",[37],26.2%
same,"viability, T/C",[38],77.7%
same,"viability, T/C",[39],79%
same,"viability, T/C",[40],62.4%
same,"viability, T/C",[41],58.7%
same,"viability, T/C",[42],36.3%
same,"viability, T/C",[43],26%
same,"viability, T/C",[44],67.1%
same,"viability, T/C",[45],58.5%
same,"viability, T/C",[46],63.7%
same,"viability, T/C",[47],40.2%
same,"viability, T/C",[48],32.7%
same,"viability, T/C",[49],23.1%
same,"viability, T/C",[50],42.7%
same,"viability, T/C",[51],39.5%
same,"viability, T/C",[52],42.2%
same,"viability, T/C",[53],32.3%
same,"viability, T/C",[54],25.2%
same,"viability, T/C",[55],20.5%
Nc1ccn(C2OC(CO)C(O)C2(F)F)c(=O)n1 (configuration not stated) + Cc1ccccc1N=Nc1ccc(NC(=O)c2ccnn2C)c(C)c1,pIC50,[1],> 7.50
same,pIC50,[2],> 7.50
same,pIC50,[3],> 7.50
same,pIC50,[4],> 7.50
same,pIC50,[5],> 7.50
same,"viability, T/C",[26],8.08%
same,"viability, T/C",[27],7.37%
same,"viability, T/C",[28],8.63%
same,"viability, T/C",[29],7.79%
same,"viability, T/C",[30],8.32%
same,"viability, T/C",[31],6.76%
same,"viability, T/C",[32],8.99%
same,"viability, T/C",[33],7.65%
same,"viability, T/C",[34],8.65%
same,"viability, T/C",[35],8.07%
same,"viability, T/C",[36],8.01%
same,"viability, T/C",[37],7.23%
same,"viability, T/C",[38],8.29%
same,"viability, T/C",[39],8.55%
same,"viability, T/C",[40],9.53%
same,"viability, T/C",[41],8.8%
same,"viability, T/C",[42],11.7%
same,"viability, T/C",[43],7.88%
same,"viability, T/C",[44],8.95%
same,"viability, T/C",[45],7.07%
same,"viability, T/C",[46],7.3%
same,"viability, T/C",[47],10.1%
same,"viability, T/C",[48],8.53%
same,"viability, T/C",[49],5.4%
same,"viability, T/C",[50],8.79%
same,"viability, T/C",[51],9.42%
same,"viability, T/C",[52],7.46%
same,"viability, T/C",[53],10.9%
same,"viability, T/C",[54],9.28%
same,"viability, T/C",[55],6.09%
CC[C@@]1(O)C(=O)OCc2c1cc1n(c2=O)Cc2cc3c(CN(C)C)c(O)ccc3nc2-1,"viability, T/C",compound 0.000316 µM,110% and 102% and 99.3%
same,"viability, T/C",compound 0.001 µM,103% and 107% and 96.5%
same,"viability, T/C",compound 0.00316 µM,94.2% and 93.7% and 90.6%
same,"viability, T/C",compound 0.01 µM,83.7% and 86.5% and 77.4%
same,"viability, T/C",compound 0.0316 µM,59.3% and 48.2% and 41.8%
same,"viability, T/C",compound 0.1 µM,28.4% and 23.3% and 20.4%
same,pIC50,curve of compound,7.34 and 7.51 and 7.61
Nc1ncn(C2CC(O)C(CO)S2)c(=O)n1 (configuration not stated) + Cc1ccccc1N=Nc1ccc(NC(=O)c2ccnn2C)c(C)c1,pIC50,[1],< 6.52
same,pIC50,[2],< 6.52
same,pIC50,[3],< 6.52
same,pIC50,[4],< 6.52
same,pIC50,[5],< 6.52
same,"viability, T/C","second compound 0.1 µM, first compound 0.000949 µM",96.1%
same,"viability, T/C","second compound 0.1 µM, first compound 0.003 µM",91.2%
same,"viability, T/C",[6],86.3%
same,"viability, T/C",[7],93%
same,"viability, T/C",[8],91.1%
same,"viability, T/C",[9],77.5%
same,"viability, T/C","second compound 0.316 µM, first compound 0.000949 µM",87.6%
same,"viability, T/C","second compound 0.316 µM, first compound 0.003 µM",92.3%
same,"viability, T/C",[10],93.3%
same,"viability, T/C",[11],81.5%
same,"viability, T/C",[12],82.6%
same,"viability, T/C",[13],76.6%
same,"viability, T/C","second compound 1 µM, first compound 0.000949 µM",83.6%
same,"viability, T/C","second compound 1 µM, first compound 0.003 µM",85%
same,"viability, T/C",[14],80.7%
same,"viability, T/C",[15],83.8%
same,"viability, T/C",[16],90%
same,"viability, T/C",[17],78.5%
same,"viability, T/C","second compound 3.16 µM, first compound 0.000949 µM",68.6%
same,"viability, T/C","second compound 3.16 µM, first compound 0.003 µM",66.1%
same,"viability, T/C",[18],72.4%
same,"viability, T/C",[19],79.9%
same,"viability, T/C",[20],82.2%
same,"viability, T/C",[21],64.1%
same,"viability, T/C","second compound 10 µM, first compound 0.000949 µM",64%
same,"viability, T/C","second compound 10 µM, first compound 0.003 µM",56.1%
same,"viability, T/C",[22],59%
same,"viability, T/C",[23],62.7%
same,"viability, T/C",[24],61.6%
same,"viability, T/C",[25],57.1%
